Data as given in ChEMBL document CHEMBL1201862, “PubChem BioAssay data set” (2004).
Each block holds one molecule with its values, some of them ahead of it. Active and inactive are the calls of the source.

Key:
[1] = Luminescence Cell-Based Dose Retest to Confirm Inhibitors of Cancer Stem Cells. [Related pubchem assays (depositor defined):AID2717, AID2721]; assay type: functional; settings: Homo sapiens
[2] = biological target: T1, Ubiquitin-conjugating enzyme E2 N (Homo sapiens, UniProt P61088); assay type: functional;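 further: Dose-response confirmation in a TR-FRET assay detecting UBC13-driven polyubiquitin chain formation, inhibition measured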
T1 sequence (P61088 whole entry): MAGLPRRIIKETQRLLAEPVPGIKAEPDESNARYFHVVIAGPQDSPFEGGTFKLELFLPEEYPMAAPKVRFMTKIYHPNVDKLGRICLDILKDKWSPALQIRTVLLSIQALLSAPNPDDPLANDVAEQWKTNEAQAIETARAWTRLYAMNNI

[3] = biological target: T2, Microphthalmia-associated transcription factor (Homo sapiens, UniProt O75030); experiment: TRPM1 promoter luciferase signal decrease, dose response, MITF inhibitor project, cell-based, SK-MEL-5, cherry-picked, set 3 (AID 493073); assay type: functional
T2 sequence (O75030 whole entry): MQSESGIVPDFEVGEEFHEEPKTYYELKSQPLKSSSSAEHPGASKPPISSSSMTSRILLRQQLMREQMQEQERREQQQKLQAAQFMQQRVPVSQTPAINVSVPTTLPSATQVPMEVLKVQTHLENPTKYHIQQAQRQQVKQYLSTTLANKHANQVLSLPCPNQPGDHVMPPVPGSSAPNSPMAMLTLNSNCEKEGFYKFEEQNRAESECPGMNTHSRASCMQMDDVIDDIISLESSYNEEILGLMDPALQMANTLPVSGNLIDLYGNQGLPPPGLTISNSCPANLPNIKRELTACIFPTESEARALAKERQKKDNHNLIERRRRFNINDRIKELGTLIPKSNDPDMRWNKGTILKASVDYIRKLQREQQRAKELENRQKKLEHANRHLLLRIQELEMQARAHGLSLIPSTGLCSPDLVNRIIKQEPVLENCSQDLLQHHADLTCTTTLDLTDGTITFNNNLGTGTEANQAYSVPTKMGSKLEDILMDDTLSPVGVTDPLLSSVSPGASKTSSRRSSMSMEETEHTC

INS1 = experiment: beta cell apoptosis inhibitors, cytokine rescue, dose response, luminescence, retest (AID 449756); assay type: functional, cell-based; settings: Rattus norvegicus;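 further: cell death triggered by IL-1 beta plus TNF-alpha plus IFN-gamma mixture; protective hits raise ATP signal compared with cytokine alone wells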
A-375 = experiment: A375 melanoma cell viability reduction, dose response, counter-screen for MITF modulator project, cherry-pick samples, set 2 (AID 540335); assay type: functional, cell-based; settings: Homo sapiens
Cytochrome P450 2C19 = Cytochrome P450 2C19 (Homo sapiens, UniProt P33261); experiment: Cytochrome panel assay with activity outcomes. Panel member name: p450-cyp2c19 Compounds with AC50 equal or less than 10 uM are considered active; assay type: functional; settings: read-out: AC50
Chain of Cytochrome P450 2C19 (P33261 whole entry): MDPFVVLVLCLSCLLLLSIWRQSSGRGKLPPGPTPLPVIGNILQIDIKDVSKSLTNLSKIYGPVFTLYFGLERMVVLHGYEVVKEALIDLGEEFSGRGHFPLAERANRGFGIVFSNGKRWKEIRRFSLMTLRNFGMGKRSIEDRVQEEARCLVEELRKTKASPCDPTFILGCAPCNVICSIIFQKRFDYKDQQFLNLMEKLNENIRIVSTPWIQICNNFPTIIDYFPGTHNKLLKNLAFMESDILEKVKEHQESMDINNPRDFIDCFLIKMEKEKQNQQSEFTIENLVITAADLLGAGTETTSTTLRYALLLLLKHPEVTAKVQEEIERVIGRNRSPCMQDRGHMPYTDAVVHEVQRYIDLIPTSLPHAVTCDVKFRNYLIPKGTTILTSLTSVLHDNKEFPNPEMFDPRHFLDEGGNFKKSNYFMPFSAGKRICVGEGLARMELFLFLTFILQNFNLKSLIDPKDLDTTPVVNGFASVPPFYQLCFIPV

Cytochrome P450 2C9 = Cytochrome P450 2C9 (Homo sapiens, UniProt P11712)
Chain of Cytochrome P450 2C9 (P11712 whole entry): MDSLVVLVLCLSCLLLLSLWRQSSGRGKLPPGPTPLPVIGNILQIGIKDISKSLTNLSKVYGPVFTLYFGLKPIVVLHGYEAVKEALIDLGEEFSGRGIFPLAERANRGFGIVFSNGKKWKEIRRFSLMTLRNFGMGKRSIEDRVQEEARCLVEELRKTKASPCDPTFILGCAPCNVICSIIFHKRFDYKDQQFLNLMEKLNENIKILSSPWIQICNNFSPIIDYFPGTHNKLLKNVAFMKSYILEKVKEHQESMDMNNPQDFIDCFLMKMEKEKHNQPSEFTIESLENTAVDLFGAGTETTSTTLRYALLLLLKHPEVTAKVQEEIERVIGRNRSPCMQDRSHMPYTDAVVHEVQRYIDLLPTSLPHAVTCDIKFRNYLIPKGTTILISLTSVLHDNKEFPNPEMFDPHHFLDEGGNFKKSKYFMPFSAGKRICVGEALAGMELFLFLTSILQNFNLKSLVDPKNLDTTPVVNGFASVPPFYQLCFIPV

Cytochrome P450 3A4 = Cytochrome P450 3A4 (Homo sapiens, UniProt P08684);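 further: CYP3A4 tested as one member of a cytochrome P450 panel screen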
[4] = biological target: T3, RNA-binding protein pos-1 (Caenorhabditis elegans, UniProt G5EF15); experiment: inhibitors of POS-1/mex-3 RNA binding, dose response, biochemical, fluorescence polarization (AID 1964);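 further: purified POS-1 fused to maltose binding protein made in E. coli; potency of compounds blocking POS-1 binding to fluorescent RNA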
T3 sequence (G5EF15 whole entry): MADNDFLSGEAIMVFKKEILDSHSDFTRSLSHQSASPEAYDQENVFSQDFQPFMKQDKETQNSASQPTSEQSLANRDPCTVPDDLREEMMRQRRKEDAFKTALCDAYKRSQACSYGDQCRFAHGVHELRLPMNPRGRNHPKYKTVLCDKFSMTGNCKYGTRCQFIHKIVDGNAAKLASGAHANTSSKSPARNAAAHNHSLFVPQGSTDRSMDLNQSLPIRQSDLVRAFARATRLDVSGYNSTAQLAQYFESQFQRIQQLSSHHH

[5] = biological target: Peroxisome proliferator-activated receptor gamma/Nuclear receptor coactivator 1 (Homo sapiens, UniProt P37231); experiment: (§1) TR-FRET dose response biochemical High Throughput Screening assay for agonists of the steroid receptor coactivator 1 (SRC-1) recruitment by the peroxisome proliferator-activated receptor gamma (PPAR gamma): non-selective agonists. [Related pubchem assays (depositor defined):AID1300, AID1808, AID504735, AID631]; assay type: protein assay
Chain of Peroxisome proliferator-activated receptor gamma/Nuclear receptor coactivator 1 (P37231 whole entry): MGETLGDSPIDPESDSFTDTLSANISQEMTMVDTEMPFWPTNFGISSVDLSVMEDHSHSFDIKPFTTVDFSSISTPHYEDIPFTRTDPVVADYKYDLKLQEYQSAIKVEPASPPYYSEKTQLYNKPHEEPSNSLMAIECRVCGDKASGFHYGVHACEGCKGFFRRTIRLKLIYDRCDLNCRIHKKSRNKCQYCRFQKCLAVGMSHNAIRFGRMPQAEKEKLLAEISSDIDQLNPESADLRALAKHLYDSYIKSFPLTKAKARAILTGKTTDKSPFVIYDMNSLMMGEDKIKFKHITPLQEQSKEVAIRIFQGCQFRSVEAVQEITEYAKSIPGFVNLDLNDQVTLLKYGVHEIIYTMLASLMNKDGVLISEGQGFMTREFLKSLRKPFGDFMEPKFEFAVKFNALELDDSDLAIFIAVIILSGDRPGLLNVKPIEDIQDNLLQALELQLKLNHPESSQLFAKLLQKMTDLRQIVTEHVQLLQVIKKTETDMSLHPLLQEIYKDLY
Chain of Peroxisome proliferator-activated receptor gamma/Nuclear receptor coactivator 1 (Q15788 whole entry, further chain): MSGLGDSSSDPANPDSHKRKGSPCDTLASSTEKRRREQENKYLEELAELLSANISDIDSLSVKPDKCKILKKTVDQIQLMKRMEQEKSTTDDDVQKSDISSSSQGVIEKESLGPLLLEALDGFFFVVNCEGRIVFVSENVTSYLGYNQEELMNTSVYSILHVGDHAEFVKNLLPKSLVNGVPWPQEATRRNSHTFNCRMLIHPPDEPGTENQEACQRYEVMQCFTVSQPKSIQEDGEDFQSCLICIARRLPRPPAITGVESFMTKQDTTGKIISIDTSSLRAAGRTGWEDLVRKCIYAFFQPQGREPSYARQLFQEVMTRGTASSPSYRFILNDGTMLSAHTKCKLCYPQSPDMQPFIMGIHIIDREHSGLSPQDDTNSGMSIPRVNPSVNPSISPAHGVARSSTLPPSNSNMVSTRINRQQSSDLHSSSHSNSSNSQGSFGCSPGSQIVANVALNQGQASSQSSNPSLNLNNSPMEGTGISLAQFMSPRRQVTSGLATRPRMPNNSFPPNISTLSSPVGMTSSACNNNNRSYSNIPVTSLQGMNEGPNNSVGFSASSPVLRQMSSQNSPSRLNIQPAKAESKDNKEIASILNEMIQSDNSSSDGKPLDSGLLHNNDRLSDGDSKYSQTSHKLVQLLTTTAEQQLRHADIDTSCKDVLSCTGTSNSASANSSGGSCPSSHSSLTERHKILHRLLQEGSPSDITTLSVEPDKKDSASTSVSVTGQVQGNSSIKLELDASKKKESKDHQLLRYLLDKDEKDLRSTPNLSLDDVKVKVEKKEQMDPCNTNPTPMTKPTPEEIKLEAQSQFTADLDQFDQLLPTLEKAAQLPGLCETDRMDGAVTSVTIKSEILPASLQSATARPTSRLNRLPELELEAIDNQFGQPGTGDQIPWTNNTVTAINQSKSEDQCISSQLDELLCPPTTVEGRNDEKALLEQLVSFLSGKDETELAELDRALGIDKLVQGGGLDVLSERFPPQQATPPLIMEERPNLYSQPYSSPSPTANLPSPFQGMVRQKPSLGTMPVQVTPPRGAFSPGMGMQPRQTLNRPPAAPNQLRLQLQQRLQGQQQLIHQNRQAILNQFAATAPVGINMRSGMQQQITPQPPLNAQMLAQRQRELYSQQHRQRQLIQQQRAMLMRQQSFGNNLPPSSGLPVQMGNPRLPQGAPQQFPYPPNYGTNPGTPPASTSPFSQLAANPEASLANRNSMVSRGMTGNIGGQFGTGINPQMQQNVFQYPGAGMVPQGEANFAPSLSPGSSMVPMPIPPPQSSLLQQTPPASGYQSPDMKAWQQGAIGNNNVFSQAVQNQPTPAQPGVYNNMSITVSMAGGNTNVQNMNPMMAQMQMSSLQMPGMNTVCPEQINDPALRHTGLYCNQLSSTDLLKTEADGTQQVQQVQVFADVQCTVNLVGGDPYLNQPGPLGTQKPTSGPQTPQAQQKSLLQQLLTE

[6] = biological target: Peroxisome proliferator-activated receptor gamma/Nuclear receptor coactivator 3 (Homo sapiens, UniProt P37231); experiment: as §1, with “3 (SRC-3)” for “1 (SRC-1)”, “assays: 1301 (Confirmation screen.), 1048 (Primary screen.)]” for “assays (depositor defined):AID1300, AID1808, AID504735, AID631]”; assay type: functional
[7] = biological target: T4, Zinc finger protein mex-5 (Caenorhabditis elegans, UniProt Q9XUB2); experiment: MEX-5/TCR-2 RNA interaction inhibitors, dose response, biochemical, C. elegans, fluorescence polarization (AID 1960)
T4 sequence (Q9XUB2 whole entry): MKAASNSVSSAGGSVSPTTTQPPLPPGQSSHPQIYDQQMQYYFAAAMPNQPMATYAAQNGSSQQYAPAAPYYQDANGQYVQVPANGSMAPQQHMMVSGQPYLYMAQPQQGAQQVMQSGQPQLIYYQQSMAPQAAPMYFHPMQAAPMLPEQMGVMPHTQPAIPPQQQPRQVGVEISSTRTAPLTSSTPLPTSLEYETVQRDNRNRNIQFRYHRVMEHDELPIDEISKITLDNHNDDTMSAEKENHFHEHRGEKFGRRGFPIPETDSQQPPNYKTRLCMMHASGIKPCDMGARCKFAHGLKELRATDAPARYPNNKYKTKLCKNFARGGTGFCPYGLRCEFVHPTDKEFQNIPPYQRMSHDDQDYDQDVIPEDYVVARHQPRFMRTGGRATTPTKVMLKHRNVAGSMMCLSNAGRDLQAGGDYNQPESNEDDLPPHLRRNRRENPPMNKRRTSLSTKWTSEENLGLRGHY

[8] = biological target: Peroxisome proliferator-activated receptor gamma/Nuclear receptor coactivator 2 (Homo sapiens, UniProt P37231); experiment: TR-FRET dose response biochemical High Throughput Screening assay for agonists of the steroid receptor coactivator 2 (SRC-2) recruitment by the peroxisome proliferator-activated receptor gamma (PPAR gamma): non-selective agonists. [Related pubchem assays: 1297, 1032 ]; assay type: functional
Chain of Peroxisome proliferator-activated receptor gamma/Nuclear receptor coactivator 2 (P37231 whole entry): as the sequence (P37231 whole entry) above
Chain of Peroxisome proliferator-activated receptor gamma/Nuclear receptor coactivator 2 (Q15596 whole entry, further chain): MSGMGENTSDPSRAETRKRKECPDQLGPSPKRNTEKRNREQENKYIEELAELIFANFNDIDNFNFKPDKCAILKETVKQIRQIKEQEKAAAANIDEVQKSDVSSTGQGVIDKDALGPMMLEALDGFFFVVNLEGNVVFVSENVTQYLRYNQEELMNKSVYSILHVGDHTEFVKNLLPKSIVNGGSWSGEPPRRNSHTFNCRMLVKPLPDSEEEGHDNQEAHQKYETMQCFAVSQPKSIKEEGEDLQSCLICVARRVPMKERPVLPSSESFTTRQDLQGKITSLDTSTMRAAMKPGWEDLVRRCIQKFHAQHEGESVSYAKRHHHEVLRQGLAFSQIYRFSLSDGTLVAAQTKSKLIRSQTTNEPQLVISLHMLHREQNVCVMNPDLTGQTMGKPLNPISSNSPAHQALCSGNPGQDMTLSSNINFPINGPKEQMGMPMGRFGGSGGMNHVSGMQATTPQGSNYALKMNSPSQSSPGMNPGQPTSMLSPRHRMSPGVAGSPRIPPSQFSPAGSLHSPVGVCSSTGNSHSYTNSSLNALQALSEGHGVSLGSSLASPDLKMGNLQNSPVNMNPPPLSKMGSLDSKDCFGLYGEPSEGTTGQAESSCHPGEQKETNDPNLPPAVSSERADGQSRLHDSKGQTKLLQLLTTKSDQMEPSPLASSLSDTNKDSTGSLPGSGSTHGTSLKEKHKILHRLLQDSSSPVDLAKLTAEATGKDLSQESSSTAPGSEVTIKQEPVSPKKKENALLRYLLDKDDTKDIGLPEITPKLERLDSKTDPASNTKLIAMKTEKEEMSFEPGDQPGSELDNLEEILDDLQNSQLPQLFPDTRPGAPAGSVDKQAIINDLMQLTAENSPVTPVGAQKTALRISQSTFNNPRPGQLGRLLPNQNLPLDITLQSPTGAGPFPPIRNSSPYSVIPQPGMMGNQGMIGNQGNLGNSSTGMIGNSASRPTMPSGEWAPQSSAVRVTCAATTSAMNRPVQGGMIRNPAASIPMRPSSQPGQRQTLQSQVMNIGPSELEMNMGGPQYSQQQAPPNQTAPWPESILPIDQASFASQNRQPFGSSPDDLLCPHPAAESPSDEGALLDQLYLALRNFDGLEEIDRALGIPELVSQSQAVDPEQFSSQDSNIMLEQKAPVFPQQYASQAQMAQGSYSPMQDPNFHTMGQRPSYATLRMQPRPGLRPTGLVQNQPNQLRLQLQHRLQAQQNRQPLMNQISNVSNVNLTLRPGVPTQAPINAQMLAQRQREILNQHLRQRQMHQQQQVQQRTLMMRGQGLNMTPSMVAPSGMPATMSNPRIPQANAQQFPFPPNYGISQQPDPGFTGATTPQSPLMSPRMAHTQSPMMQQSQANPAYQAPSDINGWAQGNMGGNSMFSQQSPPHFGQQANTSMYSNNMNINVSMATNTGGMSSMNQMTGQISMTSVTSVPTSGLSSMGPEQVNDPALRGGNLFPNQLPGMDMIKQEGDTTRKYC

[9] = biological target: T5, Corticotropin-releasing factor receptor 2/Corticotropin-releasing factor-binding protein (Homo sapiens, UniProt P24387+Q13324); experiment: Dose Response confirmation of uHTS hits for small molecule antagonists of the CRF-binding protein and CRF-R2 receptor complex.; assay type: functional; settings: read-out: IC50_Mean
T5 sequence (Q13324 whole entry): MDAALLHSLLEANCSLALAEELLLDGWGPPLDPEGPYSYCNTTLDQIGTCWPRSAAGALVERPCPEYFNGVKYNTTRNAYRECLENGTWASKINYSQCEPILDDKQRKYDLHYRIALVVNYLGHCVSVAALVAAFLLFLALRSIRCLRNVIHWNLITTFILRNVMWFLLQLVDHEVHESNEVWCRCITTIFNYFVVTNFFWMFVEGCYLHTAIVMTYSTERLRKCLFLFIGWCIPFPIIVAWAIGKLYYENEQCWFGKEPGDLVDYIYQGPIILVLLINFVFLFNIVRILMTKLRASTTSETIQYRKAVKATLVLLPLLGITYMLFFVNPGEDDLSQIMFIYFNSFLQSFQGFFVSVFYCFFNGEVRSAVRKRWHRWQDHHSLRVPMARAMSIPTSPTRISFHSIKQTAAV
T5 sequence (P24387 whole entry): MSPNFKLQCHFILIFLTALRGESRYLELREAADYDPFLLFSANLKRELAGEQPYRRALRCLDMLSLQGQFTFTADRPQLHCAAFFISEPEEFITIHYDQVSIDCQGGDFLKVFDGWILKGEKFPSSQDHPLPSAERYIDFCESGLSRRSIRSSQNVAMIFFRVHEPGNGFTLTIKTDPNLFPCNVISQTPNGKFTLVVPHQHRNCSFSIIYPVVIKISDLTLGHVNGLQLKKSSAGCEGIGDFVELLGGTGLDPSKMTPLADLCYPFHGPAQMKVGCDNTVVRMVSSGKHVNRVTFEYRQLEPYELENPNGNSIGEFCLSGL

[10] = biological target: T5, Corticotropin-releasing factor receptor 2/Corticotropin-releasing factor-binding protein; experiment: activators of CRF receptor 2 with binding protein – uHTS hits, confirmation (AID 602473); assay type: functional; settings: read-out: EC50_Mean
cells = assay type: functional, cell-based
[11] = biological target: T6, Nuclear receptor subfamily 0 group B member 1 (Homo sapiens, UniProt P51843); assay type: functional, cell-based;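 further: HEK293T cells transfected with SF-1 and DAX-1 plus StAR promoter luciferase reporter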
T6 sequence (P51843 whole entry): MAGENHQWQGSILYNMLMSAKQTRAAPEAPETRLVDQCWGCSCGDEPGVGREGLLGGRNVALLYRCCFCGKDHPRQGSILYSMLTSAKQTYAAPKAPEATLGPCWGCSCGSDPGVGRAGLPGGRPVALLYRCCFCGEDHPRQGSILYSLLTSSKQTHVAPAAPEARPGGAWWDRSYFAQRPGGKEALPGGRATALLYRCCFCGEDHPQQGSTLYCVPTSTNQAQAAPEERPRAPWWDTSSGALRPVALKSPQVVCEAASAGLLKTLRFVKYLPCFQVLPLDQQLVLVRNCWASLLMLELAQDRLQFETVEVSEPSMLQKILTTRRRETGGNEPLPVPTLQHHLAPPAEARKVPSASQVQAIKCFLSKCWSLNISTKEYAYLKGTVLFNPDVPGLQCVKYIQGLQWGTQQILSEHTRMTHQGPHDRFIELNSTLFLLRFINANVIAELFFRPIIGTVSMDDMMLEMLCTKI

[12] = biological target: FAD-linked sulfhydryl oxidase ALR (Homo sapiens, UniProt P55789); experiment: inhibitors of human ALR sulfhydryl oxidase, dose response, biochemical, H2O2 detection, luminescence, cherry-pick (AID 493248)
[13] = biological target: T7, Trace amine-associated receptor 1 (Homo sapiens, UniProt Q96RJ0); experiment: Fluorescence-based cell-based high throughput dose response assay to identify agonists of the human trace amine associated receptor 1 (TAAR1).; assay type: functional
T7 sequence (Q96RJ0 whole entry): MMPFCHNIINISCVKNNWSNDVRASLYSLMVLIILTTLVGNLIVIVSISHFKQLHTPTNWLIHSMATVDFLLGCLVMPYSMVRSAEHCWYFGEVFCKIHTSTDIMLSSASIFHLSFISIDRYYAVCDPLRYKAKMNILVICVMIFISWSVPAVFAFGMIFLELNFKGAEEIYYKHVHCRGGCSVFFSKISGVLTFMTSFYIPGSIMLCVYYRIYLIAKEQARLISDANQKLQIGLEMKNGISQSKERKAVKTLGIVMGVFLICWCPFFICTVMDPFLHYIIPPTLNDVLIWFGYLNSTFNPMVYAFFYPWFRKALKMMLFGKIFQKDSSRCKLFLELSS

[14] = biological target: T7, Trace amine-associated receptor 1; experiment: Counterscreen for agonists of the human trace amine associated receptor 1 (hTAAR1): Fluorescence-based cell-based high throughput dose response assay to identify hTAAR1 agonist that also desensitize TAAR1 receptor response.; assay type: functional

SMILES: CCN1CCN(CCCNC(=O)c2ccc3c(c2)NC(=O)/C(=C\c2cccc(C)c2)S3)CC1
AC50 [1]: 4.17 µM (active)
IC50 [2]: > 20 µM (inactive)
AC50 [3]: 9.93 µM (active)
AC50 (INS1): 6.5 µM (active)
AC50 (A-375): 17.5 µM (active)

AC50 (Cytochrome P450 2C19): 0.158 µM (inconclusive)
AC50 (Cytochrome P450 2C9): 5.01 µM (inconclusive)
AC50 (Cytochrome P450 3A4): inconclusive
SMILES: CCCC(=O)N1CCN(c2ccc(NC(=O)c3sc4ccccc4c3Cl)cc2)CC1

EC50 [4]: > 300 µM (not active)
EC50 [5]: > 79.4 µM (inactive)
EC50 [6]: > 79.4 µM (not active)
EC50 [7]: > 300 µM (not active)
EC50 [8]: > 79.4 µM (not active)
IC50 [9]: > 47.1 µM (inactive)
EC50 [10]: > 53 µM (inactive)
SMILES: C=CCOc1ccc(C2C(C(=O)c3ccco3)=C(O)C(=O)N2c2nnc(C)s2)cc1 (configuration not stated)

SMILES: CN1CCN(c2ccc(-c3cccc(NC(=O)COc4ccc(Cl)cc4)c3)nn2)CC1
IC50 (cells): > 67.5 µM (inactive)
IC50 [11]: > 67.5 µM (inactive)

AC50 [12]: 0.398 µM (active)
EC50 [13]: 5.67 µM (active)
SMILES: Cn1c(=O)c2[nH]c(Nc3ccccc3)nc2n(C)c1=O
IC50 [14]: 9.39 µM (active)

SMILES: Cc1ccnc(NC(=O)c2cccc(S(=O)(=O)N3CCOCC3)c2)c1
IC50 (cells): > 67.5 µM (inactive)
IC50 [11]: > 67.5 µM (inactive)
